# Patent US11932626B2, “2-pyrimidone analogs as potent antiviral agents against Alphaviruses” (priority 2020, dated 2024)
# Legend:
# CHIKV = CHIKV virus titer reduction (VTR) assay in NHDF cells; assay type: cell-based; settings: Chikungunya virus; for log reduction at 10 µM: CHIKV titer reduction at 10 μM, normal human dermal fibroblasts (NHDF) cells; for EC90: effective concentration of 90% inhibition of virus in a VTR assay, NHDF cells
# VEEV = assay: microbe, parasite or virus in culture; assay type: cell-based; settings: Venezuelan equine encephalitis virus, NHDF; for EC90: read-out: VEEV EC90; for log reduction at 10 µM: read-out: VEEV VTR
# [1] = test system: CHIKV linked NanoLuc luciferase reporter; assay: microbe, parasite or virus in culture; assay type: cell-based; settings: Chikungunya virus, read-out: CHIKV EC50
# VEEV (TC-83) = assay: microbe, parasite or virus in culture; assay type: cell-based; settings: Venezuelan equine encephalitis virus, read-out: VEEV EC50
# in vitro = settings: human
Compound,log reduction at 10 µM (CHIKV),EC90 (CHIKV),EC90 (VEEV),log reduction at 10 µM (VEEV),EC50 [1],EC50 (VEEV (TC-83)),CC50 (in vitro)
"O=C(COc1cc(C2CC(F)(F)C2)[nH]c(=O)n1)NC12CC3CC(CC(C3)C1)C2 [compound 14, N-(Adamantan-1-Yl)-2-((6-(3,3-Difluorocyclobutyl)-2-Oxo-1,2-Dihydropyrimidin-4-Yl)Oxy)Acetamide]",3.17,70 nM,30 nM,8.19,< 78 nM,830 nM,> 40000 nM
"O=C(COc1cc(-c2ccccc2)[nH]c(=O)n1)NC12CC3CC(CC(C3)C1)C2 [compound 15, N-(Adamantan-1-Yl)-2-((2-Oxo-6-Phenyl-1,2-Dihydropyrimidin-4-Yl)Oxy)Acetamide]",8.93,2700 nM,2020 nM,3.25,1470 nM,20800 nM,> 40000 nM
"O=C(COc1cc(C(F)(F)F)[nH]c(=O)n1)NC12CC3CC(CC(C3)C1)C2 [compound 16, N-(Adamantan-1-Yl)-2-((2-Oxo-6-(Trifluoromethyl)-1,2-Dihydropyrimidin-4-Yl)Oxy)Acetamide]",1.09,15000 nM,> 10000 nM,0,> 40000 nM,> 40000 nM,> 40000 nM
"N#Cc1ccc(-c2cc(OCC(=O)NC34CC5CC(CC(C5)C3)C4)nc(=O)[nH]2)cc1 [compound 17, N-(Adamantan-1-Yl)-2-((6-(4-Cyanophenyl)-2-Oxo-1,2-Dihydropyrimidin-4-Yl)Oxy)Acetamide]",1.59,> 40000 nM,9800 nM,3.69,> 40000 nM,> 40000 nM,> 40000 nM
"O=C(COc1cc(Cl)[nH]c(=O)n1)NC12CC3CC(CC(C3)C1)C2 [compound 18, N-(Adamantan-1-Yl)-2-((6-Chloro-2-Oxo-1,2-Dihydropyrimidin-4-Yl)Oxy)Acetamide]",5.19,510 nM,5650 nM,1,810 nM,16100 nM,> 40000 nM
"O=C(COc1cc(N2CCOCC2)[nH]c(=O)n1)NC12CC3CC(CC(C3)C1)C2 [compound 19, N-(Adamantan-1-Yl)-2-((6-Morpholino-2-Oxo-1,2-Dihydropyrimidin-4-Yl)Oxy)Acetamide]",4.84,740 nM,3200 nM,4.4,2380 nM,33300 nM,> 40000 nM
"O=C(COc1cc(N2CC(F)(F)C2)[nH]c(=O)n1)NC12CC3CC(CC(C3)C1)C2 [compound 20, N-(Adamantan-1-Yl)-2-((6-(3,3-Difluoroazetidin-1-Yl)-2-Oxo-1,2-Dihydropyrimidin-4-Yl)Oxy)Acetamide]",3.49,67 nM,400 nM,6.63,< 78 nM,2010 nM,> 40000 nM
"O=C(COc1nc(=O)[nH]c2c1CCC2)NC12CC3CC(CC(C3)C1)C2 [compound 21, N-(Adamantan-1-Yl)-2-((2-Oxo-2,5,6,7-Tetrahydro-1H-Cyclopenta[D]Pyrimidin-4-Yl)Oxy)Acetamide]",4.26,300 nM,1000 nM,5.2,530 nM,15700 nM,> 40000 nM
"O=C(COc1nc(=O)[nH]c2c1CCCC2)NC12CC3CC(CC(C3)C1)C2 [compound 22, N-(Adamantan-1-Yl)-2-((2-Oxo-1,2,5,6,7,8-Hexahydroquinazolin-4-Yl)Oxy)Acetamide]",4.94,45 nM,1440 nM,7.02,640 nM,8700 nM,> 40000 nM
"O=C(COc1nc(=O)[nH]c2c1COCC2)NC12CC3CC(CC(C3)C1)C2 [compound 23, N-(Adamantan-1-Yl)-2-((2-Oxo-1,5,7,8-Tetrahydro-2H-Pyrano[4,3-D]Pyrimidin-4-Yl)Oxy)Acetamide]",5.85,200 nM,2100 nM,6.4,1110 nM,11100 nM,> 40000 nM
"O=C(COc1nc(=O)[nH]c2ccccc12)NC12CC3CC(CC(C3)C1)C2 [compound 24, N-(Adamantan-1-Yl)-2-((2-Oxo-1,2-Dihydroquinazolin-4-Yl)Oxy)Acetamide]",6.28,300 nM,3200 nM,1,470 nM,> 40000 nM,> 40000 nM
"Cc1c[nH]c(=O)nc1OCC(=O)NC12CC3CC(CC(C3)C1)C2 [compound 25, N-(Adamantan-1-Yl)-2-((5-Methyl-2-Oxo-1,2-Dihydropyrimidin-4-Yl)Oxy)Acetamide]",4.91,2100 nM,2830 nM,3.04,1970 nM,16100 nM,> 40000 nM
"O=C(COc1nc(=O)[nH]cc1F)NC12CC3CC(CC(C3)C1)C2 [compound 26, N-(ADAMANTAN-1-YL)-2-((5-FLUORO-2-OXO-1,2-DIHYDROPYRIMIDIN-4-YL)OXY)ACETAMIDE]",5.19,300 nM,100 nM,3.22,3150 nM,> 40000 nM,> 40000 nM
"O=C(COc1nc(=O)[nH]cc1F)NC1C2CC3CC(C2)CC1C3 (stereo not shown) [compound 27, N-(Adamantan-2-Yl)-2-((5-Fluoro-2-Oxo-1,2-Dihydropyrimidin-4-Yl)Oxy)Acetamide]",1.31,8750 nM,10000 nM,0,32500 nM,> 40000 nM,> 40000 nM
"O=C(COc1nc(=O)[nH]cc1Cl)NC12CC3CC(CC(C3)C1)C2 [compound 28, N-(Adamantan-1-Yl)-2-((5-Chloro-2-Oxo-1,2-Dihydropyrimidin-4-Yl)Oxy)Acetamide]",1.6,10000 nM,> 10000 nM,0.71,33400 nM,> 40000 nM,> 40000 nM
"Cc1[nH]c(=O)nc(OCC(=O)NC23CC4CC(CC(C4)C2)C3)c1C [compound 29, N-(Adamantan-1-Yl)-2-((5,6-Dimethyl-2-Oxo-1,2-Dihydropyrimidin-4-Yl)Oxy)Acetamide]",4.24,400 nM,2970 nM,2.91,2290 nM,> 40000 nM,> 40000 nM
"O=C(COc1nc(=O)[nH]c(N2C3CCC2COC3)c1F)NC12CC3CC(CC(C3)C1)C2 [compound 34, 2-((6-(3-Oxa-8-Azabicyclo[3.2.1]Octan-8-Yl)-5-Fluoro-2-Oxo-1,2-Dihydropyrimidin-4-Yl)Oxy)-N-(Adamantan-1-Yl)Acetamide]",6.13,190 nM,5000 nM,1.97,1020 nM,22500 nM,> 40000 nM
"O=C(COc1nc(=O)[nH]c(N2CC(F)(F)C2)c1F)NC12CC3CC(CC(C3)C1)C2 [compound 35, N-(Adamantan-1-Yl)-2-((6-(3,3-Difluoroazetidin-1-Yl)-5-Fluoro-2-Oxo-1,2-Dihydropyrimidin-4-Yl)Oxy)Acetamide]",4,51 nM,1500 nM,3.35,700 nM,5190 nM,> 40000 nM
"COc1cc(OCC(=O)NC23CC4CC(CC(C4)C2)C3)nc(=O)[nH]1 [compound 36, N-(adamantan-1-yl)-2-((6-methoxy-2-oxo-1,2-dihydropyrimidin-4-yl)oxy)acetamide]",4.56,230 nM,> 10000 nM,0.63,1140 nM,> 40000 nM,> 40000 nM
